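Interpolation was linear, between the two tested concentrations surrounding the appropriate level; five concentrations were tested over 48 hours in 96-well plates. Abbreviation: GI50, concentration required for 50% inhibition of growth.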 Calls of active or inactive are those of the source. Cut-off read from the data, not from the text of the source: active = GI50 up to about 1.1 µM and inactive = higher.
Experiments:
Test in all cases: NCI anticancer screen, dose series, 48 h
TK-10 = system: TK-10
UO-31 = system: UO-31
HT-29 = system: HT-29
OVCAR-3 = system: OVCAR-3
HOP-92 = system: HOP-92
RXF 393 = system: RXF 393
SN12C = system: SN12C
786-0 = system: 786-0
HCT-116 = system: HCT-116
SF-539 = system: SF-539
IGROV-1 = system: IGROV-1
MOLT-4 = system: MOLT-4
SR = system: SR
DMS-273 = system: DMS-273
U-251 = system: U-251
HCT-15 = system: HCT-15
OVCAR-5 = system: OVCAR-5
A498 = system: A498

SMILES	GI50 (TK-10)	GI50 (UO-31)	GI50 (HT-29)	GI50 (OVCAR-3)	GI50 (HOP-92)	GI50 (RXF 393)	GI50 (SN12C)	GI50 (786-0)	GI50 (HCT-116)	GI50 (SF-539)	GI50 (IGROV-1)	GI50 (MOLT-4)	GI50 (SR)	GI50 (DMS-273)	GI50 (U-251)	GI50 (HCT-15)	GI50 (OVCAR-5)	GI50 (A498)
Cc1nc2nnc(C)n2c2c1C(=O)Nc1ccccc1N2	> 100 µM (inactive)	> 100 µM (inactive)	> 100 µM (inactive)	> 100 µM (inactive)	> 100 µM (inactive)	> 100 µM (inactive)	> 100 µM (inactive)	> 100 µM (inactive)	> 100 µM (inactive)	> 100 µM (inactive)	> 100 µM (inactive)	> 100 µM (inactive)	> 100 µM (inactive)	> 100 µM (inactive)	> 100 µM (inactive)	–	–	–
C/C(=N\NC(=N)N)C(CN1CCOCC1)C(c1ccccc1)c1c(O)c2ccccc2oc1=O (configuration not stated)	> 100 µM (inactive)	–	> 100 µM (inactive)	> 100 µM (inactive)	25.7 µM (inactive)	29 µM (inactive)	> 100 µM (inactive)	> 100 µM (inactive)	90.6 µM (inactive)	77.6 µM (inactive)	> 100 µM (inactive)	66.2 µM (inactive)	80 µM (inactive)	> 100 µM (inactive)	> 100 µM (inactive)	> 100 µM	> 100 µM (inactive)	–
NCCNc1cccc2ccccc12	> 100 µM (inactive)	> 100 µM (inactive)	> 100 µM (inactive)	> 100 µM (inactive)	> 100 µM (inactive)	> 100 µM (inactive)	> 100 µM (inactive)	> 100 µM (inactive)	> 100 µM (inactive)	> 100 µM (inactive)	> 100 µM (inactive)	–	> 100 µM (inactive)	> 100 µM (inactive)	> 100 µM (inactive)	> 100 µM	> 100 µM (inactive)	> 100 µM (inactive)
CNS(=O)(=O)NNS(=O)(=O)c1cccc([N+](=O)[O-])c1	> 100 µM (inactive)	> 100 µM (inactive)	> 100 µM (inactive)	> 100 µM (inactive)	–	> 100 µM (inactive)	> 100 µM (inactive)	> 100 µM (inactive)	> 100 µM (inactive)	> 100 µM (inactive)	> 100 µM (inactive)	> 100 µM (inactive)	> 100 µM (inactive)	> 100 µM (inactive)	> 100 µM (inactive)	> 100 µM	–	–
Cc1nc(O)nc(CC(O)(c2ccccc2)c2ccccc2)c1-c1ccccc1	> 100 µM (inactive)	50.1 µM (inactive)	> 100 µM (inactive)	> 100 µM (inactive)	55.8 µM (inactive)	> 100 µM (inactive)	> 100 µM (inactive)	> 100 µM (inactive)	> 100 µM (inactive)	> 100 µM (inactive)	> 100 µM (inactive)	> 100 µM (inactive)	–	> 100 µM (inactive)	> 100 µM (inactive)	> 100 µM	> 100 µM (inactive)	> 100 µM (inactive)
COc1ccc(/C=N/NC(=O)NCCNCCO)cc1	> 100 µM (inactive)	> 100 µM (inactive)	> 100 µM (inactive)	> 100 µM (inactive)	> 100 µM (inactive)	> 100 µM (inactive)	> 100 µM (inactive)	> 100 µM (inactive)	> 100 µM (inactive)	> 100 µM (inactive)	> 100 µM (inactive)	> 100 µM (inactive)	> 100 µM (inactive)	> 100 µM (inactive)	> 100 µM (inactive)	> 100 µM	> 100 µM (inactive)	> 100 µM (inactive)
CCCC/C=C1\CCC(CN2CCCC2)C1=O (configuration not stated)	2.59 µM (inactive)	17.2 µM (inactive)	14.5 µM (inactive)	17.1 µM (inactive)	12.1 µM (inactive)	–	17.9 µM (inactive)	1.83 µM (inactive)	14.3 µM (inactive)	16.1 µM (inactive)	18.4 µM (inactive)	3.57 µM (inactive)	4.36 µM (inactive)	16.7 µM (inactive)	6.75 µM (inactive)	3.13 µM	19.1 µM (inactive)	14.7 µM (inactive)
[N-]=[N+]=NC12CC3C4CC5CC3C(C1)C(C5)C4C2	> 100 µM (inactive)	> 100 µM (inactive)	> 100 µM (inactive)	> 100 µM (inactive)	> 100 µM (inactive)	–	> 100 µM (inactive)	> 100 µM (inactive)	> 100 µM (inactive)	> 100 µM (inactive)	> 100 µM (inactive)	> 100 µM (inactive)	> 100 µM (inactive)	> 100 µM (inactive)	> 100 µM (inactive)	–	> 100 µM (inactive)	> 100 µM (inactive)
OCCN(CCO)c1ncnc2c1sc(=S)n2-c1ccccc1	> 100 µM (inactive)	> 100 µM (inactive)	> 100 µM (inactive)	> 100 µM (inactive)	> 100 µM (inactive)	> 100 µM (inactive)	> 100 µM (inactive)	> 100 µM (inactive)	> 100 µM (inactive)	> 100 µM (inactive)	> 100 µM (inactive)	> 100 µM (inactive)	> 100 µM (inactive)	> 100 µM (inactive)	> 100 µM (inactive)	> 100 µM	> 100 µM (inactive)	46 µM (inactive)
CN(C)c1ccc(/C=C2\C=Cc3ccccc32)cc1	> 100 µM (inactive)	20.2 µM (inactive)	40.4 µM (inactive)	73.6 µM (inactive)	44.5 µM (inactive)	17.9 µM (inactive)	39.9 µM (inactive)	61 µM (inactive)	33.1 µM (inactive)	50.7 µM (inactive)	53.7 µM (inactive)	32.1 µM (inactive)	32.4 µM (inactive)	36.7 µM (inactive)	55 µM (inactive)	34.6 µM	> 100 µM (inactive)	42.7 µM (inactive)
N=C(NNS(=O)(=O)c1ccccc1)Oc1ccc(Br)cc1Br	> 100 µM (inactive)	> 100 µM (inactive)	55.7 µM (inactive)	> 100 µM (inactive)	44.8 µM (inactive)	> 100 µM (inactive)	> 100 µM (inactive)	41.3 µM (inactive)	> 100 µM (inactive)	> 100 µM (inactive)	> 100 µM (inactive)	> 100 µM (inactive)	> 100 µM (inactive)	> 100 µM (inactive)	> 100 µM (inactive)	> 100 µM	> 100 µM (inactive)	> 100 µM (inactive)
N#CC1=C(N)Oc2c(ccc3cccnc23)C1c1ccccc1 (configuration not stated)	3.9 µM (inactive)	4.46 µM (inactive)	0.339 µM (active)	0.608 µM (active)	9.35 µM (inactive)	2.13 µM (inactive)	3.3 µM (inactive)	6 µM (inactive)	0.562 µM (active)	1.25 µM (inactive)	0.847 µM (active)	0.667 µM (active)	0.333 µM (active)	0.445 µM (active)	0.908 µM (active)	0.443 µM	72.4 µM (inactive)	2.21 µM (inactive)
Cc1nc2c(n1CC(C)(C)C)C(=O)c1ccccc1C2=O	> 100 µM (inactive)	> 100 µM (inactive)	98.9 µM (inactive)	66.7 µM (inactive)	16.7 µM (inactive)	> 100 µM (inactive)	> 100 µM (inactive)	> 100 µM (inactive)	79.3 µM (inactive)	> 100 µM (inactive)	> 100 µM (inactive)	91.2 µM (inactive)	97.7 µM (inactive)	76.9 µM (inactive)	> 100 µM (inactive)	> 100 µM	–	–
CCOC(=O)[C@H]1Nc2ccc(OC)cc2C2c3ccccc3CC21 (some centres not stated)	> 100 µM (inactive)	> 100 µM (inactive)	> 100 µM (inactive)	> 100 µM (inactive)	–	37.5 µM (inactive)	> 100 µM (inactive)	> 100 µM (inactive)	> 100 µM (inactive)	> 100 µM (inactive)	> 100 µM (inactive)	> 100 µM (inactive)	> 100 µM (inactive)	> 100 µM (inactive)	> 100 µM (inactive)	> 100 µM	> 100 µM (inactive)	> 100 µM (inactive)
N#Cc1ccc(Nc2cnc3cc(N)ccc3n2)cc1	> 100 µM (inactive)	56 µM (inactive)	50.5 µM (inactive)	95.9 µM (inactive)	54.5 µM (inactive)	26.5 µM (inactive)	89.1 µM (inactive)	85.1 µM (inactive)	55 µM (inactive)	> 100 µM (inactive)	–	41.7 µM (inactive)	44.4 µM (inactive)	> 100 µM (inactive)	> 100 µM (inactive)	> 100 µM	> 100 µM (inactive)	–
CCN(CCCl)CCCCCNc1c2ccccc2nc2ccc(OC)cc12	7.66 µM (inactive)	2.88 µM (inactive)	0.259 µM (active)	1.83 µM (inactive)	0.436 µM (active)	1.07 µM (active)	0.232 µM (active)	0.345 µM (active)	0.221 µM (active)	1.04 µM (active)	0.578 µM (active)	0.0155 µM (active)	–	0.184 µM (active)	0.603 µM (active)	1.3 µM	1.55 µM (inactive)	1.26 µM (inactive)
COc1cc2c(cc1OC)C(Cc1ccc(Oc3cc(CC4c5cc(OC)c(OC)cc5CCN4C)ccc3O)cc1)N(C)CC2 (configuration not stated)	52.7 µM (inactive)	14.5 µM (inactive)	13.1 µM (inactive)	19.5 µM (inactive)	24.3 µM (inactive)	11.9 µM (inactive)	25.8 µM (inactive)	13.5 µM (inactive)	10.3 µM (inactive)	16.3 µM (inactive)	23.1 µM (inactive)	14.2 µM (inactive)	1.79 µM (inactive)	21.7 µM (inactive)	16.9 µM (inactive)	15.6 µM	> 100 µM (inactive)	22 µM (inactive)

From ChEMBL document CHEMBL1201862, “PubChem BioAssay data set” (2004)
